Results on twelve molecules are retold here after patent US7880007B2, “Bicyclic substituted phenyl piperidine modulators of muscarinic receptors” (Vertex Pharmaceuticals Incorporated, priority 2004, dated 2011).

Common to all, as to format: cell-based
For one experiment, the target named is T1, M2 muscarinic receptor (Homo sapiens, UniProt P08172).
T1 construct: expressed in transfected cells; host or cells: CHO (M2-CHO)
T1 sequence (P08172 1-466): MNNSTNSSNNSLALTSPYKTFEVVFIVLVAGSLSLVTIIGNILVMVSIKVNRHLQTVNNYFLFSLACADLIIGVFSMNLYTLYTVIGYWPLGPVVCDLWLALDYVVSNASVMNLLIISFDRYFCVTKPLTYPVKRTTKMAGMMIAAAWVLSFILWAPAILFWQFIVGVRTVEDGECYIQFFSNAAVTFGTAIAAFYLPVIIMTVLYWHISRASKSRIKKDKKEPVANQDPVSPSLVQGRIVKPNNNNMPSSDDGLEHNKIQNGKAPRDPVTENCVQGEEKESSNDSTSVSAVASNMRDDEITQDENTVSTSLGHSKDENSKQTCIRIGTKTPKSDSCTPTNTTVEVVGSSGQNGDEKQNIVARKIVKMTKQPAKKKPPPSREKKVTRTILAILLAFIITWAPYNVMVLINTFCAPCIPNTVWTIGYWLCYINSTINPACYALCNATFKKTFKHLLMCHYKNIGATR
In words: Functional mobilization of intracellular calcium (FLIPR), M2-CHO cells. The conditions noted are these: for Emax: 100% efficacy = maximum response obtained with the Carbachol control; for M2 Activity: M2-CHO cells, calcium mobilization (FLIPR). The gist of the method:
(§1)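 FLIPR fluorescence (ex 488, em 540 nm) recorded 60 sec after compound addition to dye-loaded CHO cells. Agonist mode: compound alone. Antagonist mode: 15 min compound pre-incubation, then carbachol at EC80, or co-application. Efficacy expressed as % of maximal carbachol response.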
(Calcium flux is commonly read through the fluorescence of an indicator in the cells.)

The next experiment deals with T2, M4 muscarinic receptor (Homo sapiens, UniProt P08173).
T2 construct: expressed in transfected cells; host or cells: CHO (M4-CHO)
T2 sequence (P08173 1-479): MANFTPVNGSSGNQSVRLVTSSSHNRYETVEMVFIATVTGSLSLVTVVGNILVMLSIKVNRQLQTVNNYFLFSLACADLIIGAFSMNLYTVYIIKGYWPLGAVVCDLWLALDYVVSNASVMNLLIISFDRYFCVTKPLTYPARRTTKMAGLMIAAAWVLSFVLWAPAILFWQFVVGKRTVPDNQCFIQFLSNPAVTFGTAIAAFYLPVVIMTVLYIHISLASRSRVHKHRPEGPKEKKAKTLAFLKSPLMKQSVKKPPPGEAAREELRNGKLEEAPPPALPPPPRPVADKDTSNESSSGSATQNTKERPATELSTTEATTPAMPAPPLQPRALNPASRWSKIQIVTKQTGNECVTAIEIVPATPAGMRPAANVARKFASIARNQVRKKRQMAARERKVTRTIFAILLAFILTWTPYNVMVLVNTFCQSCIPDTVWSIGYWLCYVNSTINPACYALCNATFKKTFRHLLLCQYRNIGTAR
In words: Functional mobilization of intracellular calcium (FLIPR), M4-CHO cells. The conditions noted are these: for Emax: 100% efficacy = maximum response obtained with the Carbachol control; for M4 Activity: M4-CHO cells, calcium mobilization (FLIPR). An outline of the steps: as §1

For a further experiment, the target named is T3, M1 muscarinic receptor (Homo sapiens, UniProt P11229).
T3 construct: expressed in transfected cells; host or cells: CHO (M1-CHO)
T3 sequence (P11229 1-460): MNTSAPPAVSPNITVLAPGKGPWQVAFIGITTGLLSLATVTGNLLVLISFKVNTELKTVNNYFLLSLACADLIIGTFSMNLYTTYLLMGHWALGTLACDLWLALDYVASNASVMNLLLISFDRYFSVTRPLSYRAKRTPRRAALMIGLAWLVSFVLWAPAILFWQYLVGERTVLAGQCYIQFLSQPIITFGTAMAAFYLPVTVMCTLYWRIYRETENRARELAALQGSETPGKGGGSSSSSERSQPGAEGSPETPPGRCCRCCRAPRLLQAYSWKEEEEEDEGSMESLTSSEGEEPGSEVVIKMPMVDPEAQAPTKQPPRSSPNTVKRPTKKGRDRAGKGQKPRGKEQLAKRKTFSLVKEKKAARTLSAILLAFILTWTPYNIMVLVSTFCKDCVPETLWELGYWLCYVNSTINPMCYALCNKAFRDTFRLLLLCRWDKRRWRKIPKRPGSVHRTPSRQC
Description: Functional mobilization of intracellular calcium (FLIPR), M1-CHO cells. Particulars: for Emax: 100% efficacy = maximum response obtained with the Carbachol control; for M1 Activity: M1-CHO cells, calcium mobilization (FLIPR). The gist of the method:
as §1

For a further experiment, the target named is T4, M3 muscarinic receptor (Homo sapiens, UniProt P20309).
T4 construct: expressed in transfected cells; host or cells: CHO (M3-CHO)
T4 sequence (P20309 whole entry): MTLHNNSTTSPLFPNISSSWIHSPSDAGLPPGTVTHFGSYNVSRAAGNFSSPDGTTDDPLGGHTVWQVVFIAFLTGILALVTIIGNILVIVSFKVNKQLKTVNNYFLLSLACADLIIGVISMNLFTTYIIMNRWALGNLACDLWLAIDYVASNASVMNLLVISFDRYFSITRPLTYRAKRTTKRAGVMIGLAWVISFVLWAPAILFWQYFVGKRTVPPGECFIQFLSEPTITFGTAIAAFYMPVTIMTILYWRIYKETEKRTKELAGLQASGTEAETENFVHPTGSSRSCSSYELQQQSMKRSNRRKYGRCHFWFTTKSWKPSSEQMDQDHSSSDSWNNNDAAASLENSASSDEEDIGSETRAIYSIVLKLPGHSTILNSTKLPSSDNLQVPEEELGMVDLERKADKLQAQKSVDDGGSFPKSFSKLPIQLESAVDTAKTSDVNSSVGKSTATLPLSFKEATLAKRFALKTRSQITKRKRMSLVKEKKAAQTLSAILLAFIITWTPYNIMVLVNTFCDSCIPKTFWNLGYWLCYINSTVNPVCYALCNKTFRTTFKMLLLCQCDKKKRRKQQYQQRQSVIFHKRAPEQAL
Description: Functional mobilization of intracellular calcium (FLIPR), M3-CHO cells. Particulars: for Emax: 100% efficacy = maximum response obtained with the Carbachol control; for M3 Activity: M3-CHO cells, calcium mobilization (FLIPR). The gist of the method: as §1

Each structure is given as a SMILES string.

By Emax is commonly meant the size of the effect at its maximum, as opposed to the concentration needed. Regarding `COc1cc(F)ccc1C1CCN([C@@H]2C[C@H]3CC[C@H]2C3)CC1` [Compound 35], on M2 muscarinic receptor, the Emax is less than 25% and the “M2 Activity” value is on record as “+ (activity was measured to be greater than 5.0 μM)”. At M4 muscarinic receptor, the Emax was in the range of 25 to 100% and the “M4 Activity” value is on record as “+++ (activity was measured to be less than 1.0 μM)”. In addition, at M1 muscarinic receptor, the Emax lay within 25 to 100% and the “M1 Activity” value is recorded as “+ (activity was measured to be greater than 5.0 μM)”. At M3 muscarinic receptor, the Emax was less than 25% and the “M3 Activity” value is on record as “+ (activity was measured to be greater than 5.0 μM)”.

For `CNC(=O)c1ccc(-c2ccc(OC)c(C3CCN(C4CCCCC4)CC3)c2)cc1` [Compound 36], at M2 muscarinic receptor, the Emax is less than 25% and the “M2 Activity” value was “+ (activity was measured to be greater than 5.0 μM)”. For the same molecule, on M4 muscarinic receptor, the Emax was in the range of 25 to 100% and the “M4 Activity” value was “++ (activity was measured to be from 1.0 μM to 5.0 μM)”. On M1 muscarinic receptor, the Emax is less than 25% and the “M1 Activity” value is “+ (activity was measured to be greater than 5.0 μM)”. For the same molecule, on M3 muscarinic receptor, the Emax was less than 25% and the “M3 Activity” value is “+ (activity was measured to be greater than 5.0 μM)”.

Regarding `COc1ccccc1C1CC2CCC(C1)N2C1CCOCC1` (centres unmarked) [Compound 37], on M2 muscarinic receptor, the Emax is less than 25% and the “M2 Activity” value is reported as “+ (activity was measured to be greater than 5.0 μM)”. In addition, on M4 muscarinic receptor, the Emax was less than 25% and the “M4 Activity” value is recorded as “+ (activity was measured to be greater than 5.0 μM)”. On M1 muscarinic receptor, the Emax was less than 25% and the “M1 Activity” value was “+ (activity was measured to be greater than 5.0 μM)”. Moreover, at M3 muscarinic receptor, the Emax was less than 25% and the “M3 Activity” value is reported as “+ (activity was measured to be greater than 5.0 μM)”.

As for `COc1ccccc1C1CCN(C2CCC[C@@H](C)C2)CC1` (some centres unmarked) [Compound 38], at M2 muscarinic receptor, the Emax is less than 25% and the “M2 Activity” value is given as “+ (activity was measured to be greater than 5.0 μM)”. Also, at M4 muscarinic receptor, the Emax is 25 to 100% and the “M4 Activity” value was “+++ (activity was measured to be less than 1.0 μM)”. Also, on M1 muscarinic receptor, the Emax is less than 25% and the “M1 Activity” value is on record as “+ (activity was measured to be greater than 5.0 μM)”. Moreover, on M3 muscarinic receptor, the Emax was less than 25% and the “M3 Activity” value was “+ (activity was measured to be greater than 5.0 μM)”.

Take `CCOC(=O)N1CCC(CN2CCC(c3cc(F)ccc3OC)CC2)CC1` [Compound 39]: at M2 muscarinic receptor, the maximal response (Emax) lay in the range of 25 to 100% and the “M2 Activity” value is given as “+++ (activity was measured to be less than 1.0 μM)”. For the same molecule, at M4 muscarinic receptor, the Emax is 25 to 100% and the “M4 Activity” value is reported as “+++ (activity was measured to be less than 1.0 μM)”. Moreover, at M1 muscarinic receptor, the Emax is 25 to 100% and the “M1 Activity” value is on record as “+++ (activity was measured to be less than 1.0 μM)”. At M3 muscarinic receptor, the Emax is less than 25% and the “M3 Activity” value is “+ (activity was measured to be greater than 5.0 μM)”.

For the molecule `COc1ccc(F)cc1C1(F)CCN(C2CC3CCC(C3)C2)CC1` (centres unmarked) [Compound 40], on M2 muscarinic receptor, the Emax was 25 to 100% and the “M2 Activity” value was “+ (activity was measured to be greater than 5.0 μM)”. Further, on M4 muscarinic receptor, the Emax fell in the range of 25 to 100% and the “M4 Activity” value was “+++ (activity was measured to be less than 1.0 μM)”. Besides, at M1 muscarinic receptor, the Emax was 25 to 100% and the “M1 Activity” value is “++ (activity was measured to be from 1.0 μM to 5.0 μM)”. Moreover, on M3 muscarinic receptor, the Emax is less than 25% and the “M3 Activity” value is “+ (activity was measured to be greater than 5.0 μM)”.

Take `OC1(c2ccc(F)cc2F)CCN(C2C[C@H]3CC[C@H]2C3)CC1` (some centres unmarked) [Compound 41]: on M2 muscarinic receptor, the Emax is less than 25% and the “M2 Activity” value was “+ (activity was measured to be greater than 5.0 μM)”. At M4 muscarinic receptor, the Emax is less than 25% and the “M4 Activity” value is given as “+ (activity was measured to be greater than 5.0 μM)”. On M1 muscarinic receptor, the maximal effect (Emax) is less than 25% and the “M1 Activity” value is “+ (activity was measured to be greater than 5.0 μM)”. On M3 muscarinic receptor, the Emax is less than 25% and the “M3 Activity” value is “+ (activity was measured to be greater than 5.0 μM)”.

Consider `CCOC(=O)C(C)(C)Oc1ccccc1C1CCN([C@H]2C[C@H]3CC[C@H]2C3)CC1` [Compound 42], for which, at M2 muscarinic receptor, the Emax is less than 25% and the “M2 Activity” value is listed as “+ (activity was measured to be greater than 5.0 μM)”. In addition, at M4 muscarinic receptor, the Emax was less than 25% and the “M4 Activity” value is “++ (activity was measured to be from 1.0 μM to 5.0 μM)”. For the same molecule, at M1 muscarinic receptor, the Emax was less than 25% and the “M1 Activity” value is given as “+ (activity was measured to be greater than 5.0 μM)”. For the same molecule, on M3 muscarinic receptor, the Emax is less than 25% and the “M3 Activity” value is given as “+ (activity was measured to be greater than 5.0 μM)”.

For `CCOC(=O)N1CCC(N2CCC(c3cc(-c4ccc(S(C)(=O)=O)cc4)ccc3OC)CC2)CC1` [Compound 43], at M2 muscarinic receptor, the maximum response (Emax) was in the range of 25 to 100% and the “M2 Activity” value is on record as “+++ (activity was measured to be less than 1.0 μM)”. At M4 muscarinic receptor, the Emax was 25 to 100% and the “M4 Activity” value is recorded as “+++ (activity was measured to be less than 1.0 μM)”. Also, on M1 muscarinic receptor, the Emax is more than 100% and the “M1 Activity” value was “+++ (activity was measured to be less than 1.0 μM)”. Besides, at M3 muscarinic receptor, the Emax lay within 25 to 100% and the “M3 Activity” value was “+ (activity was measured to be greater than 5.0 μM)”.

For the molecule `COc1ccc(Cl)cc1C1(F)CCN(C[C@@H]2C[C@H]3C=C[C@H]2C3)CC1` [Compound 44], at M2 muscarinic receptor, the Emax fell in the range of 25 to 100% and the “M2 Activity” value is “+ (activity was measured to be greater than 5.0 μM)”. Also, on M4 muscarinic receptor, the Emax was in the range of 25 to 100% and the “M4 Activity” value is “++ (activity was measured to be from 1.0 μM to 5.0 μM)”. On M1 muscarinic receptor, the Emax is 25 to 100% and the “M1 Activity” value is reported as “+ (activity was measured to be greater than 5.0 μM)”. Further, on M3 muscarinic receptor, the Emax is less than 25% and the “M3 Activity” value is recorded as “+ (activity was measured to be greater than 5.0 μM)”.

Turning to `Cc1ccc(-c2ccccc2C2CCN([C@H]3C[C@H]4CC[C@H]3C4)CC2)cc1` [Compound 45], at M2 muscarinic receptor, the maximum response (Emax) is less than 25% and the “M2 Activity” value was “+ (activity was measured to be greater than 5.0 μM)”. Moreover, on M4 muscarinic receptor, the Emax fell in the range of 25 to 100% and the “M4 Activity” value is “+ (activity was measured to be greater than 5.0 μM)”. Moreover, at M1 muscarinic receptor, the Emax is less than 25% and the “M1 Activity” value was “+ (activity was measured to be greater than 5.0 μM)”. At M3 muscarinic receptor, the Emax was less than 25% and the “M3 Activity” value is on record as “+ (activity was measured to be greater than 5.0 μM)”.

In the case of `Cc1ccccc1C1CCN(CC2CC3C=CC2C3)CC1` (centres unmarked) [Compound 46], at M2 muscarinic receptor, the Emax was in the range of 25 to 100% and the “M2 Activity” value is listed as “+ (activity was measured to be greater than 5.0 μM)”. Also, on M4 muscarinic receptor, the maximum response (Emax) lay in the range of 25 to 100% and the “M4 Activity” value is listed as “+++ (activity was measured to be less than 1.0 μM)”. In addition, on M1 muscarinic receptor, the Emax lay within 25 to 100% and the “M1 Activity” value is reported as “++ (activity was measured to be from 1.0 μM to 5.0 μM)”. Also, at M3 muscarinic receptor, the “M3 Activity” value was “+ (activity was measured to be greater than 5.0 μM)”.
